In patent publication US9206219B2, “17-hydroxy-17-pentafluorethyl-estra-4,9(10)-dien-11-aryl derivatives, methods for the production thereof and the use thereof for treating diseases” (Bayer Intellectual Property GmbH, priority 2009, dated 2015):

Assays:
[1] = target: T1, human progesterone receptor A (Homo sapiens, UniProt P06401); experiment: Progesterone receptor-antagonistic action in stably transfected SK-N-MC cells, MMTV-LUC reporter (PR-A); type: cell-based; conditions: antagonistic potency vs 0.1 nmol/l promegestone, 24 hours
T1 construct: expressed in transfected cells; host or cells: SK-N-MC human neuroblastoma cells, stably transfected with pRChPR-A-neo and pMMTV-LUC
T1 sequence (P06401 1-769 isoform P06401-2): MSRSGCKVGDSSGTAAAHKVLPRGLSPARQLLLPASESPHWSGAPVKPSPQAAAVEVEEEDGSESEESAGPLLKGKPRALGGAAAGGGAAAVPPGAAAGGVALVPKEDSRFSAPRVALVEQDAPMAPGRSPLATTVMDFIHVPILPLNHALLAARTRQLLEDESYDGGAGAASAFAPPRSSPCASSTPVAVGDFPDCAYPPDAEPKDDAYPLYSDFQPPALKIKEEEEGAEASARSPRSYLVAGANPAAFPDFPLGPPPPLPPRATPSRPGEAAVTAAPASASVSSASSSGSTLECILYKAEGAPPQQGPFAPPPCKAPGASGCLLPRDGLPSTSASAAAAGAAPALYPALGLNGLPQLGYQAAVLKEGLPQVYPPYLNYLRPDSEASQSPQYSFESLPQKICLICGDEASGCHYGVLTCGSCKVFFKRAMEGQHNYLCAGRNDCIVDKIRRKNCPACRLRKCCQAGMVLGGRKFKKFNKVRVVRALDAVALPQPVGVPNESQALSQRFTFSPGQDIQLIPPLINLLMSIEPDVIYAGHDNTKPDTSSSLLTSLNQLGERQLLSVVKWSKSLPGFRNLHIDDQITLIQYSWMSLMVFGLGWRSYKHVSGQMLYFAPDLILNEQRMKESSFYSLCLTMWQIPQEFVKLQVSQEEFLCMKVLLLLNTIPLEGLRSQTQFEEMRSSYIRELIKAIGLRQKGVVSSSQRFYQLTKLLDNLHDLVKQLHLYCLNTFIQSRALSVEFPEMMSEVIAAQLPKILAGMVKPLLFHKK
How it was run: (§1)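 Stably transfected SK-N-MC cells express human PR-B or PR-A plus MMTV-LUC. For antagonism they were co-treated with 0.1 nmol/l promegestone and compound (0.01 nmol/l upward) for 24 hours. Luciferase in lysates was read as RLU and reported as % efficacy and IC50.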

[2] = target: T2, human progesterone receptor B (Homo sapiens, UniProt P06401); experiment: Progesterone receptor-antagonistic action in stably transfected SK-N-MC cells, MMTV-LUC reporter (PR-B); type: cell-based; conditions: antagonistic potency vs 0.1 nmol/l promegestone, 24 hours
T2 construct: expressed in transfected cells; host or cells: SK-N-MC human neuroblastoma cells, stably transfected with pRChPR-B-neo and pMMTV-LUC
T2 sequence (P06401 1-933): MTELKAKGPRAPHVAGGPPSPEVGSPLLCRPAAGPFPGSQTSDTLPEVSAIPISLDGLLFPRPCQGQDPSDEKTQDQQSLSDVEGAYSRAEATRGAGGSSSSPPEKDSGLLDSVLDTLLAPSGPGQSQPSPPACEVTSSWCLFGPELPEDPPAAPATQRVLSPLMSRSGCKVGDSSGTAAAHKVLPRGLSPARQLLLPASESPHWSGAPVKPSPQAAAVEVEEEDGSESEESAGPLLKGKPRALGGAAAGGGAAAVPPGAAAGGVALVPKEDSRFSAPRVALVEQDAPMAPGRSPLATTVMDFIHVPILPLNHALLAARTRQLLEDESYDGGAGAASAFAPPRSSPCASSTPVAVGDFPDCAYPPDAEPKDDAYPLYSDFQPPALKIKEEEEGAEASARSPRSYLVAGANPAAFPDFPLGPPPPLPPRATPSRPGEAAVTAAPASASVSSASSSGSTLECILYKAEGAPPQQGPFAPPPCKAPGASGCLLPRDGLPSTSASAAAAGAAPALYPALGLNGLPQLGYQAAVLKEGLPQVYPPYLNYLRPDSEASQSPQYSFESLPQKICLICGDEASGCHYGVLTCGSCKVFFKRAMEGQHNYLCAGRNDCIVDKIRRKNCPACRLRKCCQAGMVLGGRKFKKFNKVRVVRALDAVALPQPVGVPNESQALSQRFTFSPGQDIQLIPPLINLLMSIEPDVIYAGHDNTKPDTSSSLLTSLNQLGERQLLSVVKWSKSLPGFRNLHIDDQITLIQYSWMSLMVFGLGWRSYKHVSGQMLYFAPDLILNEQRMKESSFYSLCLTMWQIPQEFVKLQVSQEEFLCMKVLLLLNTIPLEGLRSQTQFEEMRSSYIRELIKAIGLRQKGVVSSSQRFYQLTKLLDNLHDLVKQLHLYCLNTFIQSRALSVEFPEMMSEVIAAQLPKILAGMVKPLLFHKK
How it was run: as §1

[3] = Metabolic stability in rat liver microsomes; type: in vitro ADME; conditions: calculated from liver microsome clearance
Experimental: (§2) Determination of Metabolic Stability in Human and Rat Liver Microsomes
(§3) The incubations were conducted with 2.4 ml of HLM solution (protein content 0.5 mg/ml), 30 μl of the test compound (final concentration 1 μM) and 0.6 ml of the cofactor mixture (=NADPH-generating system composed of 3 IU glucose-6-phosphate dehydrogenase, 14.6 mg glucose-6-phosphate, 1.2 mg NADP) at 37° C. in 100 mM phosphate buffer at pH 7.4. Samples were taken at 6 time points (2-60 min) and precipitated with an equal volume of methanol, and the recovery of the test substances used in the supernatant was determined by LC-MS/MS analysis. The half-life of substance degradation determined therefrom was used to calculate what is called the intrinsic clearance of the substance in the liver microsome preparation. […] In addition, under the assumptions that (i) absorption of the test substance is 100%, and (ii) the first pass is completely reflected by liver microsome metabolism, a maximum oral bioavailability (Fmax) was calculated.

[4] = Metabolic stability in human liver microsomes; type: in vitro ADME; conditions: calculated from liver microsome clearance
Experimental: as §2
Isolated human liver microsomes (HLM) were used to assess the metabolic stability of compounds of general formula I.
as §3

C[C@]12C[C@H](c3ccc(CCc4ccccn4)cc3)C3=C4CCC(=O)C=C4CC[C@H]3[C@@H]1CC[C@@]2(O)C(F)(F)C(F)(F)F [Example 2, (8S,11R,13S,14S,17S)-17-hydroxy-13-methyl-17-pentafluoroethyl-11-[4-(2-pyridin-2-ylethyl)phenyl]-1,2,6,7,8,11,12,13,14,15,16,17-dodecahydrocyclopenta[a]phenanthren-3-one]
IC50 [1]: 0.095 nM
IC50 [2]: 0.11 nM
Predicted Fmax (maximum oral bioavailability) [3]: 18%

Cc1nc(CCc2ccc([C@H]3C[C@@]4(C)[C@@H](CC[C@@]4(O)C(F)(F)C(F)(F)F)[C@@H]4CCC5=CC(=O)CCC5=C43)cc2)cs1 [Example 3, (8S,11R,13S,14S,17S)-17-hydroxy-13-methyl-11-{4-[2-(2-methylthiazol-4-yl)ethyl]phenyl}-17-pentafluoroethyl-1,2,6,7,8,11,12,13,14,15,16,17-dodecahydrocyclopenta[a]phenanthren-3-one]
IC50 [1]: 0.09 nM
IC50 [2]: 0.04 nM
Predicted Fmax (maximum oral bioavailability) [3]: 15%

CC1(c2ccc([C@H]3C[C@@]4(C)[C@@H](CC[C@@]4(O)C(F)(F)C(F)(F)F)[C@@H]4CCC5=CC(=O)CCC5=C43)cc2)CC1 [Example 4, (8S,11R,13S,14S,17S)-17-hydroxy-13-methyl-11-[4-(1-methylcyclopropyl)phenyl]-17-pentafluoroethyl-1,2,6,7,8,11,12,13,14,15,16,17-dodecahydrocyclopenta[a]phenanthren-3-one]
IC50 [1]: 0.012 nM
IC50 [2]: 0.012 nM
Predicted Fmax (maximum oral bioavailability) [4]: 37%
Predicted Fmax (maximum oral bioavailability) [3]: 52%

CC(C)(O)c1ccc([C@H]2C[C@@]3(C)[C@@H](CC[C@@]3(O)C(F)(F)C(F)(F)F)[C@@H]3CCC4=CC(=O)CCC4=C32)cc1 [Example 5, (8S,11R,13S,14S,17S)-17-hydroxy-11-[4-(1-hydroxy-1-methylethyl)phenyl]-13-methyl-17-pentafluoroethyl-1,2,6,7,8,11,12,13,14,15,16,17-dodecahydrocyclopenta[a]phenanthren-3-one]
IC50 [1]: 0.016 nM
IC50 [2]: 0.09 nM
Predicted Fmax (maximum oral bioavailability) [4]: 44%
Predicted Fmax (maximum oral bioavailability) [3]: 52%

C[C@]12C[C@H](c3ccc(CCc4cccnc4)cc3)C3=C4CCC(=O)C=C4CC[C@H]3[C@@H]1CC[C@@]2(O)C(F)(F)C(F)(F)F [Example 7, (8S,11R,13S,14S,17S)-17-hydroxy-13-methyl-17-pentafluoroethyl-11-[4-(2-pyridin-3-ylethyl)phenyl]-1,2,6,7,8,11,12,13,14,15,16,17-dodecahydrocyclopenta[a]phenanthren-3-one]
IC50 [1]: 0.08 nM
IC50 [2]: 0.09 nM
Predicted Fmax (maximum oral bioavailability) [3]: 20%

C[C@]12C[C@H](c3ccc(CCc4ccncc4)cc3)C3=C4CCC(=O)C=C4CC[C@H]3[C@@H]1CC[C@@]2(O)C(F)(F)C(F)(F)F [Example 8, (8S,11R,13S,14S,17S)-17-hydroxy-13-methyl-17-pentafluoroethyl-11-[4-(2-pyridin-4-ylethyl)phenyl]-1,2,6,7,8,11,12,13,14,15,16,17-dodecahydrocyclopenta[a]phenanthren-3-one]
IC50 [1]: 0.08 nM
IC50 [2]: 0.09 nM
Predicted Fmax (maximum oral bioavailability) [3]: 19%

C[C@]12C[C@H](c3ccc(CCC#N)cc3)C3=C4CCC(=O)C=C4CC[C@H]3[C@@H]1CC[C@@]2(O)C(F)(F)C(F)(F)F [Example 9, 3-[4-((8S,11R,13S,14S,17S)-17-hydroxy-13-methyl-3-oxo-17-pentafluoroethyl-2,3,6,7,8,11,12,13,14,15,16,17-dodecahydro-1H-cyclopenta[a]phenanthren-11-yl)phenyl]propionitrile]
IC50 [1]: 0.06 nM
IC50 [2]: 0.1 nM
Predicted Fmax (maximum oral bioavailability) [3]: 4.9%

CC(CO)(CO)c1ccc([C@H]2C[C@@]3(C)[C@@H](CC[C@@]3(O)C(F)(F)C(F)(F)F)[C@@H]3CCC4=CC(=O)CCC4=C32)cc1 [Example 15A, (8S,11R,13S,14S,17S)-17-hydroxy-11-[4-(2-hydroxy-1-hydroxymethyl-1-methylethyl)phenyl]-13-methyl-17-pentafluoroethyl-1,2,6,7,8,11,12,13,14,15,16,17-dodecahydrocyclopenta[a]phenanthren-3-one]
IC50 [1]: 0.09 nM
IC50 [2]: 0.1 nM
Predicted Fmax (maximum oral bioavailability) [4]: 8.5%
Predicted Fmax (maximum oral bioavailability) [3]: 59%

CCNC(=O)NCc1ccc([C@H]2C[C@@]3(C)C(CC[C@@]3(O)C(F)(F)C(F)(F)F)C3CCC4=CC(=O)CCC4=C32)cc1 (stereo partly drawn) [Example 17, 1-ethyl-3-[4-((8S,11R,13S,14S,17S)-17-hydroxy-13-methyl-3-oxo-17-pentafluoroethyl-2,3,6,7,8,11,12,13,14,15,16,17-dodecahydro-M-cyclopenta[a]phenanthren-11-yl)benzyl]urea]
IC50 [1]: 0.4 nM
IC50 [2]: 0.8 nM
Predicted Fmax (maximum oral bioavailability) [3]: 63%

C[C@]12C[C@H](c3ccc(CNC(=O)NCc4ccccc4)cc3)C3=C4CCC(=O)C=C4CC[C@H]3[C@@H]1CC[C@@]2(O)C(F)(F)C(F)(F)F [Example 23, 1-benzyl-3-[4-((8S,11R,13S,14S,17S)-17-hydroxy-13-methyl-3-oxo-17-pentafluoroethyl-2,3,6,7,8,11,12,13,14,15,16,17-dodecahydro-1H-cyclopenta[a]phenanthren-11-yl)benzyl]urea]
IC50 [1]: 0.3 nM
IC50 [2]: 0.8 nM
Predicted Fmax (maximum oral bioavailability) [3]: 29%

C[C@]12C[C@H](c3ccc(CNC(=O)Nc4ccccc4)cc3)C3=C4CCC(=O)C=C4CC[C@H]3[C@@H]1CC[C@@]2(O)C(F)(F)C(F)(F)F [Example 24, 1-[4-((8S,11R,13S,14S,17S)-17-hydroxy-13-methyl-3-oxo-17-pentafluoroethyl-2,3,6,7,8,11,12,13,14,15,16,17-dodecahydro-1H-cyclopenta[a]phenanthren-11-yl)benzyl]-3-phenyl urea]
IC50 [1]: 0.4 nM
IC50 [2]: 0.5 nM
Predicted Fmax (maximum oral bioavailability) [3]: 77%

CCNC(=O)OCc1ccc([C@H]2C[C@@]3(C)[C@@H](CC[C@@]3(O)C(F)(F)C(F)(F)F)[C@@H]3CCC4=CC(=O)CCC4=C32)cc1 [Example 41, ethylcarbamic acid 4-((8S,11R,13S,14S,17S)-17-hydroxy-13-methyl-3-oxo-17-pentafluoroethyl-2,3,6,7,8,11,12,13,14,15,16,17-dodecahydro-1H-cyclopenta[a]phenanthren-11-yl)benzyl ester]
IC50 [1]: 0.09 nM
IC50 [2]: 0.1 nM
Predicted Fmax (maximum oral bioavailability) [3]: 49%
